In ChEMBL document CHEMBL1201862, “PubChem BioAssay data set” (2004):
Calls of active or inactive are those of the source.

What was measured:
[1] = inhibitors of HIV Env-driven cell fusion, dose response, cherry-pick (AID 652057); format: functional, cell-based
[2] = inhibitors of clade B AD8 Env fusion, dose response, cell-based, cherry-pick (AID 652062); format: functional;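 further: luciferase signal from cell-cell fusion driven by HIV-1 clade B AD8 Env; potency is for inhibitors of fusion seen as a drop in luminescence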
[3] = intracellular Trypanosoma cruzi inhibitors in host cells – cell-based, plate reader, cherry-pick samples, set 3, dose response (AID 651818); format: functional;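 further: compounds incubated with infected cells for about four days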
Cytochrome P450 3A4 = Cytochrome P450 3A4 (Homo sapiens, UniProt P08684); settings: Potency;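 further: confirmatory qHTS run detecting inhibitors and substrates of CYP3A4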
Cytochrome P450 3A4, sequence (P08684 whole entry): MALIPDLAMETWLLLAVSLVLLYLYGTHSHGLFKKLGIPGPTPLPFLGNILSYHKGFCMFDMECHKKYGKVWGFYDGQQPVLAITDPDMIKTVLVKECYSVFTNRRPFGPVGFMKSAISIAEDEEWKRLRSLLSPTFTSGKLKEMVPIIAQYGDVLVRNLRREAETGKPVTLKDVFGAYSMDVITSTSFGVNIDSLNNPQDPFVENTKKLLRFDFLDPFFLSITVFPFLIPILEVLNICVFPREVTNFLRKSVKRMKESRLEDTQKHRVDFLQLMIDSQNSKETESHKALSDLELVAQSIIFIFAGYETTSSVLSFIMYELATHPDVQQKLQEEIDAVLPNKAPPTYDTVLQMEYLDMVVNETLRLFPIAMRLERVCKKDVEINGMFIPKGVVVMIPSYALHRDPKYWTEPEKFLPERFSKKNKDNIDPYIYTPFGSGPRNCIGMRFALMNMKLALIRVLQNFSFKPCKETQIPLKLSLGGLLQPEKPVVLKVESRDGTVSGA

[4] = biological target: T1, Corticotropin-releasing factor receptor 2/Corticotropin-releasing factor-binding protein (Homo sapiens, UniProt P24387+Q13324); assay: activators of CRF receptor 2 with binding protein – uHTS hits, confirmation (AID 602473); format: functional; settings: read-out: EC50_Mean
T1 sequence (Q13324 whole entry): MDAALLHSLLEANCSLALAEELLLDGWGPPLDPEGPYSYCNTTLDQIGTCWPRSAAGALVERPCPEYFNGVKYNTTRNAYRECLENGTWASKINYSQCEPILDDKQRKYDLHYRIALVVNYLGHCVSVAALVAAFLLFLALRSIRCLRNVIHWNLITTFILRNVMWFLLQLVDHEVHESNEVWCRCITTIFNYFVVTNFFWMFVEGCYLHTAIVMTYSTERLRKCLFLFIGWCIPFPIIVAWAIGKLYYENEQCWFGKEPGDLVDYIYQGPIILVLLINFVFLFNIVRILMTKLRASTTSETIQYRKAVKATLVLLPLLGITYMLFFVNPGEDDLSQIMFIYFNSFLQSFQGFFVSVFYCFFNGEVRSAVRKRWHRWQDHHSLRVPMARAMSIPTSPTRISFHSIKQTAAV
T1 sequence (P24387 whole entry): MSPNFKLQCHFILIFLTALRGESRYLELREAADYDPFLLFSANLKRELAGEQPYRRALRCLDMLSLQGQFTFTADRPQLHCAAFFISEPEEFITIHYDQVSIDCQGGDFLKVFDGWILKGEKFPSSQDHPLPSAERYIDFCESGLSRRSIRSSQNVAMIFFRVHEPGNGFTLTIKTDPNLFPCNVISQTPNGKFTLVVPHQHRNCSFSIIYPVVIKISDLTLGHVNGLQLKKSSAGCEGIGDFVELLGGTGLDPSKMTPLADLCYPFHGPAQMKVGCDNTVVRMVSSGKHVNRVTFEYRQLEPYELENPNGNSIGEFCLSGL

[5] = biological target: T1, Corticotropin-releasing factor receptor 2/Corticotropin-releasing factor-binding protein; assay: Dose Response confirmation of uHTS hits for small molecule antagonists of the CRF-binding protein and CRF-R2 receptor complex.; format: functional; settings: read-out: IC50_Mean
[6] = Luminescence Cell-Based Dose Confirmation HTS to Identify Inhibitors of Platelet Dense Granule Release. [Related pubchem assays: 1663 (Primary HTS), 1678 (Summary of Project)]; format: functional
[7] = biological target: Luciferin 4-monooxygenase (Photinus pyralis, UniProt P08659); assay: firefly luciferase enzyme inhibitors, dose response, biochemical, luminescence (AID 1891)
Luciferin 4-monooxygenase, sequence (P08659 whole entry): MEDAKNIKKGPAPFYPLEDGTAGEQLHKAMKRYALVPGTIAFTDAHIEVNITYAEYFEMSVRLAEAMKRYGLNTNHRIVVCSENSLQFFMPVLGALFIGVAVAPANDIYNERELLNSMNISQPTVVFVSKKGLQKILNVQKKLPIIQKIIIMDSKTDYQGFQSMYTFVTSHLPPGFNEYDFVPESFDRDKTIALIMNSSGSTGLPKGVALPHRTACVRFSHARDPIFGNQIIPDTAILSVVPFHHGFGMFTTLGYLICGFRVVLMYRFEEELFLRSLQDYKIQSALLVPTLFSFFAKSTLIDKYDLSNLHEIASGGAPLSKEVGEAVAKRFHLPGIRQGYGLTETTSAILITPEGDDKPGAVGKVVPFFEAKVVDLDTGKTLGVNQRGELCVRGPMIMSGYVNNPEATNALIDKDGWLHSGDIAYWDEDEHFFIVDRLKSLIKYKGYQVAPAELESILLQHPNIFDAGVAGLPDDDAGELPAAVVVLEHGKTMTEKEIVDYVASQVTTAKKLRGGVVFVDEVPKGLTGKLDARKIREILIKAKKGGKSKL

[8] = biological target: FAD-linked sulfhydryl oxidase ALR (Homo sapiens, UniProt P55789); assay: inhibitors of human ALR sulfhydryl oxidase, dose response, biochemical, H2O2 detection, luminescence, cherry-pick (AID 493248)
FAD-linked sulfhydryl oxidase ALR, sequence (P55789 whole entry): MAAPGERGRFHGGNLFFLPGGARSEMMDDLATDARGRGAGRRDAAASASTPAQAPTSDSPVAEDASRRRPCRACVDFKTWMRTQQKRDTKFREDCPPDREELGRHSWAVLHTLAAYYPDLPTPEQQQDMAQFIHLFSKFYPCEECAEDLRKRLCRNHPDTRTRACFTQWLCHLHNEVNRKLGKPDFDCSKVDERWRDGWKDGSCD

[9] = biological target: T2, Ubiquitin-conjugating enzyme E2 N (Homo sapiens, UniProt P61088); format: functional;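 further: Dose-response confirmation in a TR-FRET assay detecting UBC13-driven polyubiquitin chain formation, inhibition measured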
T2 sequence (P61088 whole entry): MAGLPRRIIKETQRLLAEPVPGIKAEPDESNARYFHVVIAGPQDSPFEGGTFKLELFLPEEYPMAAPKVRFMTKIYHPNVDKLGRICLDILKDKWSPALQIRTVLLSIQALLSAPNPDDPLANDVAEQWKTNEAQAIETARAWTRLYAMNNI

[10] = P. falciparum Dd2 growth inhibitors, dose response, SYBR Green, cherry-picked samples (AID 1159567); format: functional, cell-based
cells = format: functional

With `CN1C(=O)C2(c3ccccc31)N(C)CC(c1ccccc1)C21SC(=S)N(Cc2ccco2)C1=O` (centres undefined) the AC50 [1] was 46.4 µM (active) and the AC50 [2] was 36.5 µM (active).

With `C[C@@H]1CCCCO[C@@H](CN(C)Cc2ccc(Cl)c(Cl)c2)[C@@H](C)CN([C@H](C)CO)C(=O)c2cc(NC(=O)Nc3ccc(C(F)(F)F)cc3)ccc2O1` the AC50 [3] was 2.84 µM (active).

With `COC(=O)[C@@H]1C[C@H]2CC[C@H](O)C[C@H]2N1Cc1ccc(N2CCOCC2)cc1` the AC50 (Cytochrome P450 3A4) was 20 µM (inconclusive).

In the case of `C[C@@H]1CCCCO[C@@H](CN(C)Cc2ccc(Cl)c(Cl)c2)[C@@H](C)CN([C@H](C)CO)C(=O)c2cc(NC(=O)CCC(F)(F)F)ccc2O1`, the AC50 [3] is reported as 3.1 µM (active).

In the case of `Cc1c(N)cccc1N`, the AC50 (Cytochrome P450 3A4) is reported as 15.8 µM (inconclusive).

For `CCC(C)NC(=O)CSc1nc2ccccc2c(=O)n1CCCC(=O)NCC1CCCO1` (centres undefined), the EC50 [4] was > 53 µM (inactive) and the IC50 [5] was > 47.1 µM (inactive).

In the case of `COc1cc(CN2CCNC(=O)C2CC(=O)NCCCN2CCOCC2)cc(OC)c1` (centres undefined), the EC50 [6] is reported as > 112 µM (not active) and the EC50 [7] is reported as > 112 µM (not active).

In the case of `COc1ccc(OC2C(=O)N(Cc3ccc(F)cc3)C2c2cc(OC)c(OC)c(OC)c2)cc1` (centres undefined), the EC50 [4] is reported as > 53 µM (inactive) and the IC50 [5] is reported as > 47.1 µM (inactive).

With `CN1CCN(S(=O)(=O)c2cccc([N+](=O)[O-])c2)CC1` the EC50 [6] was > 112 µM (not active) and the EC50 [7] was > 112 µM (not active).

With `CN(C)c1ccc(/C(=N\O)c2ccccc2)cc1` the EC50 [4] was > 53 µM (inactive), the IC50 [5] was > 47.1 µM (inactive) and the AC50 [8] was 1.64 µM (active).

For `COC(=O)c1ccc(=O)n(-c2ccc(OC)cc2)c1`, the EC50 [6] was > 112 µM (not active) and the EC50 [7] was > 112 µM (not active).

In the case of `COC(=O)[C@@H]1C[C@@]2(O)[C@H](O)[C@H](O)[C@H](O)C[C@H]2N1CC(c1ccccc1)c1ccccc1`, the AC50 (Cytochrome P450 3A4) is reported as 20 µM (inconclusive).

For `COc1cccc(CNC(=O)c2cc(S(=O)(=O)N3CCCC3)cn2C)c1`, the EC50 [6] was > 112 µM (not active) and the EC50 [7] was > 112 µM (not active).

With `CSc1ccccc1OCc1cc(C(=O)NCc2csc(C(C)C)n2)no1` the EC50 [4] was > 53 µM (inactive) and the IC50 [5] was > 47.1 µM (inactive).

For `COc1ccc(S(=O)(=O)Nc2ccc3c(c2)CC(=O)N([C@H](C)CO)C[C@@H](C)[C@@H](CN(C)Cc2ccc(Cl)c(Cl)c2)O3)cc1`, the AC50 [3] was 3.78 µM (active).

For `Cc1ccc(C(=O)NCCN2C3=NC[C@H](Cc4ccc(O)cc4)N3C[C@H]2Cc2ccc(O)cc2)cc1Br`, the IC50 [9] was > 20 µM (inactive).

In the case of `COC(=O)c1cc(-c2cccs2)nc2ccccc12`, the IC50 [9] is reported as > 20 µM (inactive).

In the case of `O=C(c1ccncc1)N1CCN(C(=O)c2cccc3ccccc23)CC1`, the EC50 [6] is reported as 16.6 µM (active) and the EC50 [7] is reported as > 112 µM (not active).

For `O=C(O)C(c1ccccc1)C1(O)CCCC1` (centres undefined), the EC50 [4] was > 53 µM (inactive) and the IC50 [5] was > 47.1 µM (inactive).

For `CCC(=O)N1CC2(C1)CN(C(=O)Nc1ccccc1F)[C@H](CO)c1[nH]c3cc(OC)ccc3c12`, the AC50 [10] was 15.9 µM (active).

With `CCN(CC(=O)Nc1ccccc1C(F)(F)F)C(=O)CCc1c(C)nc(O)c(C#N)c1C` the EC50 [6] was 2.71 µM (active) and the EC50 [7] was > 112 µM (not active).

For `Cc1nnc(NC(=O)c2ccc3ccccc3c2)o1`, the IC50 (cells) was 1.64 µM (active).

With `COc1ccc(N2CCN(c3ccc(C(=O)O)cc3[N+](=O)[O-])CC2)cc1` the AC50 [8] was 5.03 µM (active).

With `Cc1nn(-c2cccc([N+](=O)[O-])c2)c(N)c1-c1ccccc1` the EC50 [4] was > 53 µM (inactive) and the IC50 [5] was > 47.1 µM (inactive).

For `Nc1ncc([N+](=O)[O-])cc1S(=O)(=O)c1ccccc1`, the IC50 [9] was > 20 µM (inactive).
